For test [1], the target named is T1, human Nav1.5 channels stably expressed in HEK 293 cells (Homo sapiens, UniProt Q14524).
T1 construct: expressed in transfected cells
In words: PatchXpress 7000 automated patch-clamp, sodium current. Type of test: cell-based. The settings on record: selectivity over Nav1.5. The method in brief: (§1)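 IC50 values came from Hill-equation fits of rundown-corrected inhibition. PatchXpress recordings at 22° C held cells 20 mV negative to V0.5 inact and applied 10 Hz trains of 30 ms steps to −20 mV (Nav1.7) or an 8000 ms prepulse 7 mV positive to V0.5 inact. […]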
On the technique in general: The patch-clamp technique gives a direct electrical read-out from membranes.

For test [2], the target named is T2, human Nav1.7 channels stably expressed in HEK 293 cells (Homo sapiens, UniProt Q15858).
T2 construct: expressed in transfected cells
The test is described as above. Type of test: cell-based. The settings on record: 22° C., read-out: potency for the Nav 1.7 sodium ion channel (as measured by PatchXpress). The gist of the method:
as §1

T2 sequence (Q15858 whole entry): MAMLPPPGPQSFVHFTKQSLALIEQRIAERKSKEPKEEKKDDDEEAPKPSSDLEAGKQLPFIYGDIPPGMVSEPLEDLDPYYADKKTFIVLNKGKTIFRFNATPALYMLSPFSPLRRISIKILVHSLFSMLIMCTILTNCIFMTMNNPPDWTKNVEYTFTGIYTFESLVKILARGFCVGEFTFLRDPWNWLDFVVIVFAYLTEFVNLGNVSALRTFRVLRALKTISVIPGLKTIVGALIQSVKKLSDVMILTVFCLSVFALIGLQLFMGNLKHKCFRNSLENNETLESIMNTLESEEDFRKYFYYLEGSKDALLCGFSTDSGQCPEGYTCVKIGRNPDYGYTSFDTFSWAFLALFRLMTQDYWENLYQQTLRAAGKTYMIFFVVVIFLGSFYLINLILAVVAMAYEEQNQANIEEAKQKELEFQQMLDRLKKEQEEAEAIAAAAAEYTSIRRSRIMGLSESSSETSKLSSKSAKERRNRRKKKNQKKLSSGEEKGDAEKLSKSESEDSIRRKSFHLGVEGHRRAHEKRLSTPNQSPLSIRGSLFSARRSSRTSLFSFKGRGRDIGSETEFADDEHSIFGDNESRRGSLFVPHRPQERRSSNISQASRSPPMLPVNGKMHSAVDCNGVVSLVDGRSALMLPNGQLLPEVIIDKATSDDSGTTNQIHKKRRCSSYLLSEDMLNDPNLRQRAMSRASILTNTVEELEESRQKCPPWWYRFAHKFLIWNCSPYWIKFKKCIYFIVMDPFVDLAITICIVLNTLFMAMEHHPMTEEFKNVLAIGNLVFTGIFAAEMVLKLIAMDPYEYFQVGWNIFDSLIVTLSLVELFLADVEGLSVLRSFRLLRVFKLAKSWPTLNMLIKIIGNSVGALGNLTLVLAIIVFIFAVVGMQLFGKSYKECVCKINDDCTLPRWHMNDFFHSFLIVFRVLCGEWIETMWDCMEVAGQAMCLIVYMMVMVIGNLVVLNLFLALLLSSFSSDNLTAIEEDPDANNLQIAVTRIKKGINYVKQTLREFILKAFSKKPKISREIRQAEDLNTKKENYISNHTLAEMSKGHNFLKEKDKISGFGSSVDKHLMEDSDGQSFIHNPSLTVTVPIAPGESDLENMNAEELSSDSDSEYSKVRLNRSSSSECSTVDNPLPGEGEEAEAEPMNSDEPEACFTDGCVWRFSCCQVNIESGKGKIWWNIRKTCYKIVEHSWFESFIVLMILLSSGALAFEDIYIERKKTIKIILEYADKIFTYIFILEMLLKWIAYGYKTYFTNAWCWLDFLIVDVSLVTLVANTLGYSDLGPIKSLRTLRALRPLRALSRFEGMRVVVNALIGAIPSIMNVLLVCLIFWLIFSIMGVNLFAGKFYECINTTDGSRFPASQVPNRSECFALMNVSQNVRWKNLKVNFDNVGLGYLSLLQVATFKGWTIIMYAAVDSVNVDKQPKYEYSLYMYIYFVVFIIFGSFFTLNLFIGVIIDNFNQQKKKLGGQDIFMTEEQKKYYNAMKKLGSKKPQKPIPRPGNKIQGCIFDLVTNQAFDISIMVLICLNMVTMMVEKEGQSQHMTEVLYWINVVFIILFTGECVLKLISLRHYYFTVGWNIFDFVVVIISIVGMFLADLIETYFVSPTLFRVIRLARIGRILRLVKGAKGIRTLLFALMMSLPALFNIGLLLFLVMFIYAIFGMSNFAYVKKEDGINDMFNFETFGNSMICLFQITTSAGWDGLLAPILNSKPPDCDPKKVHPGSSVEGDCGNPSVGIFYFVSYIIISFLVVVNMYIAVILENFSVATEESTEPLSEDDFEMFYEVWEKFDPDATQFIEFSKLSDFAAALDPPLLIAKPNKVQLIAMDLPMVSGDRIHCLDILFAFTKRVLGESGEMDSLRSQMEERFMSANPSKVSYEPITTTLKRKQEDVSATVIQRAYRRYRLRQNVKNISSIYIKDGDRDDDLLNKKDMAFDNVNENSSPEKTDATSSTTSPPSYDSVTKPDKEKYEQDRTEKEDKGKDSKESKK
T1 sequence (Q14524 whole entry): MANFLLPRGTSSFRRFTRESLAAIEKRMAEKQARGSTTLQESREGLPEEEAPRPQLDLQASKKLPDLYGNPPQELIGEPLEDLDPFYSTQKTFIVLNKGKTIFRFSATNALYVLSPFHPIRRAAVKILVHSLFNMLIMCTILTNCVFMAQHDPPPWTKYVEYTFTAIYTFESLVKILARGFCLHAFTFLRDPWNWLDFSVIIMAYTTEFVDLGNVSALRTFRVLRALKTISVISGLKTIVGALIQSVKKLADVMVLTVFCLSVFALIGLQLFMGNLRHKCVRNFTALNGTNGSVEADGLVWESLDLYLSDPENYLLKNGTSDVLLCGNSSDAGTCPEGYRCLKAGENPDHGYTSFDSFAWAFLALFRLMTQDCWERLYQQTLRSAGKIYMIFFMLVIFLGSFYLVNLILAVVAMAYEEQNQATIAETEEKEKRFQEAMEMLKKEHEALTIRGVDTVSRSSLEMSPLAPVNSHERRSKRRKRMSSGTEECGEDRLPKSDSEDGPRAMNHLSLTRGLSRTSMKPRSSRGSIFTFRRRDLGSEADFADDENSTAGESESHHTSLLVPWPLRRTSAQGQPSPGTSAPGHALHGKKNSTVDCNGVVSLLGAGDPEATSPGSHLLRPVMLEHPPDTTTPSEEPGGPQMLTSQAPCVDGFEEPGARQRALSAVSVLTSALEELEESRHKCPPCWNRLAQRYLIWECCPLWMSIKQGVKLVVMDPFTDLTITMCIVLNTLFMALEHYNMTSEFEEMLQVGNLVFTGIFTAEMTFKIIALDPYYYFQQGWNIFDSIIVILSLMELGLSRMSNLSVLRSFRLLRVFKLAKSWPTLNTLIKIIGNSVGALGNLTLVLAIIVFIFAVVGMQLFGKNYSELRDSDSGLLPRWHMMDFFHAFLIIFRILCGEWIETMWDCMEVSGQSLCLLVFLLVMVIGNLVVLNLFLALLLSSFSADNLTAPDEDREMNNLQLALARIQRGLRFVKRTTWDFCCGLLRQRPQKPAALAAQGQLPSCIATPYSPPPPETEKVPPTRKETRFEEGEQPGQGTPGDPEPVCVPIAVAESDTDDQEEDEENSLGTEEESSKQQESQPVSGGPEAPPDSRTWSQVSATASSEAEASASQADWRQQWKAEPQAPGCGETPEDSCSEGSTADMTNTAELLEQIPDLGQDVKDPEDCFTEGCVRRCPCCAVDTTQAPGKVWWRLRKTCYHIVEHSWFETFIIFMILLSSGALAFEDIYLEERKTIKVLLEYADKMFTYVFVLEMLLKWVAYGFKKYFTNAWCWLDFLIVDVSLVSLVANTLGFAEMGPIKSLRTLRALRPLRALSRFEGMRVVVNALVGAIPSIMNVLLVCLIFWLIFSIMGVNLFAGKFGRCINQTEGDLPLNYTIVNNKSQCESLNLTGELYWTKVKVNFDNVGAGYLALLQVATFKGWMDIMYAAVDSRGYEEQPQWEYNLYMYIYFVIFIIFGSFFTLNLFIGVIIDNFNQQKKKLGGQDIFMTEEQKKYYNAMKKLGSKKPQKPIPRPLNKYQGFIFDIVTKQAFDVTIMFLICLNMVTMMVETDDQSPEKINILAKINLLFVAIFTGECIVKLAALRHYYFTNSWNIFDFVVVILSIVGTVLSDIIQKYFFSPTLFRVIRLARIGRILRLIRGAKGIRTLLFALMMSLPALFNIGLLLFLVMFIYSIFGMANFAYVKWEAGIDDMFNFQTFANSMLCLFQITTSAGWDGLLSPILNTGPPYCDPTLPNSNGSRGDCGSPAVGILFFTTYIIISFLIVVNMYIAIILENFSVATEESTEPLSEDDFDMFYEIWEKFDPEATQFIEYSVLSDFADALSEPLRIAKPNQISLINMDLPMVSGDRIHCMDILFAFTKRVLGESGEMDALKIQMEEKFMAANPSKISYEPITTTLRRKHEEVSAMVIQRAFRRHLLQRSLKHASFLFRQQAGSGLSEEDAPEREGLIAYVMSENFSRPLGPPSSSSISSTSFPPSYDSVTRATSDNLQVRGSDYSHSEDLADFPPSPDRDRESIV

For the compound `C[C@H](c1ccccc1C#C[C@@H]1CCCN1)n1c(=O)oc2cc(S(=O)(=O)Nc3ncns3)c(F)cc21` [Compound 17-17, 5-fluoro-2-oxo-3-[(1R)-1-{2-[(2S)-pyrrolidin-2-ylethynyl]phenyl}ethyl]-N-1,2,4-thiadiazol-5-yl-2,3-dihydro-1,3-benzoxazole-6-sulfonamide], the “ratio of Nav 1.5:Nav 1.7 potency, determined by PatchXpress measurement” value (“ratio of Nav 1.5:Nav 1.7 potency” below) in test [1] amounted to 1034. Also, the IC50 in test [2] worked out at 29 nM.

As to `C[C@H](c1ccccc1C#CCN1CCC1)n1c(=O)oc2cc(S(=O)(=O)Nc3ncns3)c(F)cc21` [Compound 17-18, 3-{(1R)-1-[2-(3-azetidin-1-ylprop-1-yn-1-yl)phenyl]ethyl}-5-fluoro-2-oxo-N-1,2,4-thiadiazol-5-yl-2,3-dihydro-1,3-benzoxazole-6-sulfonamide], the “ratio of Nav 1.5:Nav 1.7 potency” value in test [1] turned out to be 1085. The IC50 in test [2] turned out to be 28 nM.

On to `CC(N)C#Cc1ccccc1[C@@H](C)n1c(=O)oc2cc(S(=O)(=O)Nc3ncns3)c(F)cc21` (stereo partly drawn) [Compound 17-19, 3-{(1R)-1-[2-(3-aminobut-1-yn-1-yl)phenyl]ethyl}-5-fluoro-2-oxo-N-1,2,4-thiadiazol-5-yl-2,3-dihydro-1,3-benzoxazole-6-sulfonamide], for which the “ratio of Nav 1.5:Nav 1.7 potency” value in test [1] was 1390. The IC50 in test [2] amounted to 22 nM.

Regarding `C[C@H](c1ccccc1C#CCN)n1c(=O)oc2cc(S(=O)(=O)Nc3ncns3)c(F)cc21` [Compound 17-20, 3-{(1R)-1-[2-(3-aminoprop-1-yn-1-yl)phenyl]ethyl}-5-fluoro-2-oxo-N-1,2,4-thiadiazol-5-yl-2,3-dihydro-1,3-benzoxazole-6-sulfonamide], in test [1], the “ratio of Nav 1.5:Nav 1.7 potency” value is 2324. For the same compound, the IC50 in test [2] stood at 13 nM.

`C[C@H](c1ccccc1C#C[C@H]1CCCN1)n1c(=O)oc2cc(S(=O)(=O)Nc3ncns3)c(F)cc21` [Compound 17-21, 5-fluoro-2-oxo-3-[(1R)-1-{2-[(2R)-pyrrolidin-2-ylethynyl]phenyl}ethyl]-N-1,2,4-thiadiazol-5-yl-2,3-dihydro-1,3-benzoxazole-6-sulfonamide]: the “ratio of Nav 1.5:Nav 1.7 potency” value in test [1] turned out to be 2344. Moreover, in test [2], the IC50 is 13 nM.

`C[C@H](c1ccccc1C#CC1CCCCN1)n1c(=O)oc2cc(S(=O)(=O)Nc3ncns3)c(F)cc21` (stereo partly drawn) [Compound 17-22, 5-fluoro-2-oxo-3-{(1R)-1-[2-(piperidin-2-ylethynyl)phenyl]ethyl}-N-1,2,4-thiadiazol-5-yl-2,3-dihydro-1,3-benzoxazole-6-sulfonamide]: the “ratio of Nav 1.5:Nav 1.7 potency” value in test [1] amounted to 1456. The IC50 in test [2] came to 13 nM.

Take `C[C@H](c1ccccc1C#CC1(N)CCCCC1)n1c(=O)oc2cc(S(=O)(=O)Nc3ncns3)c(F)cc21` [Compound 17-23, 3-[(1R)-1-{2-[(1-aminocyclohexyl)ethynyl]phenyl}ethyl]-5-fluoro-2-oxo-N-1,2,4-thiadiazol-5-yl-2,3-dihydro-1,3-benzoxazole-6-sulfonamide]: the “ratio of Nav 1.5:Nav 1.7 potency” value in test [1] stood at 2477. Moreover, the IC50 in test [2] stood at 12 nM.

On to `C[C@H](c1ccccc1CN1CCCC1)n1c(=O)oc2cc(S(=O)(=O)Nc3ncns3)c(F)cc21` [Compound 18-2, (R)-5-fluoro-2-oxo-3-(1-(2-(pyrrolidin-1-ylmethyl)phenyl)ethyl)-N-(1,2,4-thiadiazol-5-yl)-2,3-dihydrobenzo[d]oxazole-6-sulfonamide], for which the “ratio of Nav 1.5:Nav 1.7 potency” value in test [1] stood at 446. Also, in test [2], the IC50 was found to be 24 nM.

Regarding `C[C@H](c1ccccc1CN1CCC(F)(F)C1)n1c(=O)oc2cc(S(=O)(=O)Nc3ncns3)c(F)cc21` [Compound 18-3, 3-[(1R)-1-{2-[(3,3-difluoropyrrolidin-1-yl)methyl]phenyl}ethyl]-5-fluoro-2-oxo-N-1,2,4-thiadiazol-5-yl-2,3-dihydro-1,3-benzoxazole-6-sulfonamide], the “ratio of Nav 1.5:Nav 1.7 potency” value in test [1] is on record as 15. Also, the IC50 in test [2] worked out at 768 nM.

Consider `C[C@H](c1ccccc1CN1CCC(F)C1)n1c(=O)oc2cc(S(=O)(=O)Nc3ncns3)c(F)cc21` (stereo partly drawn) [Compound 18-4, 5-fluoro-3-[(1R)-1-{2-[(3-fluoropyrrolidin-1-yl)methyl]phenyl}ethyl]-2-oxo-N-1,2,4-thiadiazol-5-yl-2,3-dihydro-1,3-benzoxazole-6-sulfonamide], for which the “ratio of Nav 1.5:Nav 1.7 potency” value in test [1] worked out at 82. For the same compound, the IC50 in test [2] was 132 nM.

For `C[C@H](c1ccccc1CN(C)C)n1c(=O)oc2cc(S(=O)(=O)Nc3ncns3)c(F)cc21` [Compound 18-5, 3-[(1R)-1-{2-[(dimethylamino)methyl]phenyl}ethyl]-5-fluoro-2-oxo-N-1,2,4-thiadiazol-5-yl-2,3-dihydro-1,3-benzoxazole-6-sulfonamide], in test [1], the “ratio of Nav 1.5:Nav 1.7 potency” value worked out at 525. The IC50 in test [2] came out at 13 nM.

`Cl.O=c1oc2cc(S(=O)(=O)Nc3ncns3)c(F)cc2n1Cc1cccc2c1CC(N1CC(F)(F)C1)CC2` (centres unmarked) [Compound 19-6, 3-((7-(3,3-difluoroazetidin-1-yl)-5,6,7,8-tetrahydronaphthalen-1-yl)methyl)-5-fluoro-2-oxo-N-(1,2,4-thiadiazol-5-yl)-2,3-dihydrobenzo[d]oxazole-6-sulfonamide hydrochloride]: in test [1], the “ratio of Nav 1.5:Nav 1.7 potency” value worked out at 103. The IC50 in test [2] was 118 nM.

With `O=c1oc2cc(S(=O)(=O)Nc3ncns3)c(F)cc2n1Cc1cccc2c1CC(O)CC2` (centres unmarked) [Compound 21-1, 5-fluoro-3-((7-hydroxy-5,6,7,8-tetrahydronaphthalen-1-yl)methyl)-2-oxo-N-(1,2,4-thiadiazol-5-yl)-2,3-dihydrobenzo[d]oxazole-6-sulfonamide], the “ratio of Nav 1.5:Nav 1.7 potency” value in test [1] is 113. The IC50 in test [2] turned out to be 121 nM.

As for `CC(=O)NC1CCc2cccc(Cn3c(=O)oc4cc(S(=O)(=O)Nc5ncns5)c(F)cc43)c2C1` (centres unmarked) [Compound 22-1, N-(8-((6-(N-(1,2,4-thiadiazol-5-yl)sulfamoyl)-5-fluoro-2-oxobenzo[d]oxazol-3(2H)-yl)methyl)-1,2,3,4-tetrahydronaphthalen-2-yl)acetamide], the “ratio of Nav 1.5:Nav 1.7 potency” value in test [1] came to 172. The IC50 in test [2] is 175 nM.

`Cl.O=c1oc2cc(S(=O)(=O)Nc3ncns3)c(F)cc2n1Cc1cccc2c1CNCC2F` (centres unmarked) [Compound 24-9, 5-fluoro-3-((4-fluoro-1,2,3,4-tetrahydroisoquinolin-8-yl)methyl)-2-oxo-N-(1,2,4-thiadiazol-5-yl)-2,3-dihydrobenzo[d]oxazole-6-sulfonamide hydrochloride]: the “ratio of Nav 1.5:Nav 1.7 potency” value in test [1] was 704. The IC50 in test [2] is 183 nM.

With `Nc1cc2c(Cn3c(=O)oc4cc(S(=O)(=O)Nc5ncns5)c(F)cc43)cccc2cn1` [Compound 26-5, 3-((3-Aminoisoquinolin-5-yl)methyl)-5-fluoro-2-oxo-N-(1,2,4-thiadiazol-5-yl)-2,3-dihydrobenzo[d]oxazole-6-sulfonamide], in test [1], the “ratio of Nav 1.5:Nav 1.7 potency” value stood at 450. Also, the IC50 in test [2] stood at 67 nM.

Take `Nc1cc2cccc(Cn3c(=O)oc4cc(S(=O)(=O)Nc5ncns5)c(F)cc43)c2cn1` [Compound 27-5, 3-((3-aminoisoquinolin-8-yl)methyl)-5-fluoro-2-oxo-N-(1,2,4-thiadiazol-5-yl)-2,3-dihydrobenzo[d]oxazole-6-sulfonamide]: the “ratio of Nav 1.5:Nav 1.7 potency” value in test [1] was found to be 450. Further, the IC50 in test [2] was 67 nM.

In the case of `O=c1oc2cc(S(=O)(=O)Nc3ncns3)ccc2n1Cc1cccc2cc(Cl)ncc12` [Compound 27-7, 3-[(3-chloroisoquinolin-8-yl)methyl]-2-oxo-N-1,2,4-thiadiazol-5-yl-2,3-dihydro-1,3-benzoxazole], the “ratio of Nav 1.5:Nav 1.7 potency” value in test [1] amounted to 144. Moreover, the IC50 in test [2] turned out to be 182 nM.

As to `C[C@H](c1cccc(-c2ccn(C)n2)c1)n1c(=O)oc2cc(S(=O)(=O)Nc3ncns3)c(F)cc21` [Compound 28-3, (R)-5-Fluoro-3-(1-(3-(1-methyl-1H-pyrazol-3-yl)phenyl)ethyl)-2-oxo-N-(1,2,4-thiadiazol-5-yl)-2,3-dihydrobenzo[d]oxazole-6-sulfonamide], in test [1], the “ratio of Nav 1.5:Nav 1.7 potency” value came out at 86. In addition, the IC50 in test [2] stood at 306 nM.

For `C[C@H](c1cccc(-c2ccc(O)nc2)c1)n1c(=O)oc2cc(S(=O)(=O)Nc3ncns3)c(F)cc21` [Compound 28-4, 5-fluoro-3-{(1R)-1-[3-(6-hydroxypyridin-3-yl)phenyl]ethyl}-2-oxo-N-1,2,4-thiadiazol-5-yl-2,3-dihydro-1,3-benzoxazole-6-sulfonamide], the “ratio of Nav 1.5:Nav 1.7 potency” value in test [1] turned out to be 181. For the same compound, the IC50 in test [2] is 107 nM.

On to `Cc1n[nH]cc1-c1cccc([C@@H](C)n2c(=O)oc3cc(S(=O)(=O)Nc4ncns4)c(F)cc32)c1` [Compound 28-5, 5-fluoro-3-{(1R)-1-[3-(3-methyl-1H-pyrazol-4-yl)phenyl]ethyl}-2-oxo-N-1,2,4-thiadiazol-5-yl-2,3-dihydro-1,3-benzoxazole-6-sulfonamide], for which the “ratio of Nav 1.5:Nav 1.7 potency” value in test [1] was 64. For the same compound, the IC50 in test [2] came out at 48 nM.

`CC(c1cccc(-c2ccnc(CO)c2)c1)n1c(=O)oc2cc(S(=O)(=O)Nc3ncns3)c(F)cc21` (centres unmarked) [Compound 29-3, 5-fluoro-3-(1-{3-[2-(hydroxymethyl)pyridin-4-yl]phenyl}ethyl)-2-oxo-N-1,2,4-thiadiazol-5-yl-2,3-dihydro-1,3-benzoxazole-6-sulfonamide]: the “ratio of Nav 1.5:Nav 1.7 potency” value in test [1] worked out at 61. In test [2], the IC50 came out at 216 nM.

Values taken from patent US9273040B2 (Merck Sharp & Dohme Corp., priority 2011, dated 2016).
